Patent US20260061084A1, “FIBROBLAST ACTIVATION PROTEIN (FAP) INHIBITORS, FAP CONJUGATES, AND DIAGNOSTIC AND THERAPEUTIC USES THEREOF” (Nuclidium AG, priority 2022, published 2026)

Legend:
[1] = system: HT-1080.hFAP tumor-bearing mice; test: Biodistribution studies in xenografted mice; format: in vivo; settings: for Biodistribution: HT-1080.wt: FAP-negative tumor; for Biodistribution: HT-1080.hFAP: FAP-positive tumor; for Accumulation in FAP-positive (HT-1080.hFAP) tumor and murine-FAP-positive tissues, such as the bone marrow (bones): xenografted mice, 1 h and 4 h p.i.
Experimental: The tumors were allowed to grow to an average volume of 100-200 mm^3.
Biodistribution Studies: The xenografted mice were randomized (n=5 per group) and injected intravenously via the tail vein with the ^61Cu-labeled radioligands (100 μL, […], 0.8-1MBq). Mice were euthanized 1 h and 4 h p.i. by CO2 asphyxiation. Organs of interest and blood were collected, rinsed of excess blood, blotted dry, weighed, and counted in a […]. The samples were counted against a suitably diluted aliquot of the injected solution as the standard and the results are expressed as the percentage of the injected activity per gram of tissue (% I.A./g) ±SD.

[2] = system: HT-1080.hFAP (FAP-positive) cells; test: In vitro cellular uptake (cell surface-bound and internalized fractions); format: cell-based, human; settings: 37° C., specific uptake (HT-1080.wt subtracted)
Experimental: The cellular uptake was studied in vitro using intact cells seeded in 6-well plates overnight. […] At each investigated time point, the medium containing the unbound (free) radiotracer was removed, followed by two washing steps with ice-cold phosphate-buffered saline. The cells were then treated 2×5 min with ice-cold glycine solution (0.05 M, pH 2.8) to detach the cell surface-bound radiotracer (acid released). Afterwards, the cells containing the internalized radiotracer were detached with 1 M NaOH at 37° C. and collected for measurement. The amount of specific cell surface-bound and internalized radiotracer is expressed as percentage of the total applied activity, after subtracting the non-specific values.
The cells were then preconditioned in 360 μL of assay medium (MEM medium without supplements) at 37° C. for 60 min. 40 μL of a 2 nM solution of ^61Cu-labeled radioligand was added and the cells were incubated at 37° C. The cellular uptake was interrupted at different time points (15 min, 1 hour and 4 hours), by washing twice with ice-cold PBS. Cell surface-bound radioligand was obtained by washing cells twice with ice-cold glycine buffer (pH 2.8), followed by a collection of the internalized fraction with 1 M NaOH. The activity in each fraction was measured in a […] (Cobra II).

[3] = system: Mice bearing FAP-positive and FAP-negative xenografts; test: PET/CT imaging: remaining PET activity in the mouse body; format: in vivo
Experimental: The mice were euthanized by CO2 at 4 hours p.i., and static PET scans were acquired for 30 min.
PET/CT images were acquired using β-CUBE PET scanner system (Molecubes, Gent, Belgium), with a spatial resolution of 0.85 mm and an axial field-of-view of 13 cm. Dynamic PET scans were acquired for 60 min. All PET scans were decay corrected and reconstructed into a 192×192×384 matrix by an ordered subsets maximization expectation (OSEM) algorithm using 30 iterations, a voxel size of 400×400×400 μm a 15 min per frame. CT data was used to apply attenuation correction on the PET data. The CT was imaged supine, head first, using the NanoSPECT/CTTM scanner (Bioscan Inc.). Topograms and helical CT scans of the whole mouse were first acquired using the following parameters: X-ray tube current: 177 μA, X-ray tube voltage 45 kVp, 90 seconds and 180 frames per rotation, pitch 1. CT images were reconstructed using CTReco (version r1.146), with a standard filtered back projection algorithm (exact cone beam) and post-filtered (RamLak, 100% frequency cut-off), resulting in a pixel size of 0.2 mm. Co-registered PET/CT images were visualized using maximum intensity projection (MIP) with VivoQuant software (version 4.0).

Structure (SMILES): CN(C(=O)CCC(=O)NCCNC(=O)CCC(C(=O)O)N1CCN(CC(=O)[O-])CCN(CC(=O)[O-])CC1)c1ccc2nccc(C(=O)NCC(=O)N3CC(F)(F)CC3C#N)c2c1.[61Cu+2] (stereo not shown) [[^61Cu]Cu-NODAGA-2]
- Biodistribution: Heart ([1]; 1 hour p.i., i.v.): 0.6 ± 0.1 % I.A./g
- Biodistribution: Intestine ([1]; 1 hour p.i., i.v.): 0.5 ± 0.1 % I.A./g
- Biodistribution: Liver ([1]; 1 hour p.i., i.v.): 0.6 ± 0.1 % I.A./g
- Biodistribution: Lung ([1]; 1 hour p.i., i.v.): 0.8 ± 0.1 % I.A./g
- Biodistribution: Muscle ([1]; 1 hour p.i., i.v.): 0.9 ± 0.1 % I.A./g
- Biodistribution: Spleen ([1]; 1 hour p.i., i.v.): 0.4 ± 0.1 % I.A./g
- Biodistribution: Stomach ([1]; 1 hour p.i., i.v.): 0.6 ± 0.1 % I.A./g
- Biodistribution: Adrenal ([1]; 4 hours p.i., i.v.): 0.3 ± 0.1 % I.A./g
- Biodistribution: Blood ([1]; 4 hours p.i., i.v.): 0.5 ± 0.1 % I.A./g
- Biodistribution: Heart ([1]; 4 hours p.i., i.v.): 0.3 ± 0.0 % I.A./g
- Biodistribution: Intestine ([1]; 4 hours p.i., i.v.): 0.3 ± 0.1 % I.A./g
- Biodistribution: Kidneys ([1]; 4 hours p.i., i.v.): 1.0 ± 0.1 % I.A./g
- Biodistribution: Liver ([1]; 4 hours p.i., i.v.): 0.6 ± 0.1 % I.A./g
- Biodistribution: Lung ([1]; 4 hours p.i., i.v.): 0.4 ± 0.0 % I.A./g
- Biodistribution: Muscle ([1]; 4 hours p.i., i.v.): 0.4 ± 0.1 % I.A./g
- Biodistribution: Pancreas ([1]; 4 hours p.i., i.v.): 0.5 ± 0.0 % I.A./g
- Biodistribution: Spleen ([1]; 4 hours p.i., i.v.): 0.2 ± 0.0 % I.A./g
- Biodistribution: Stomach ([1]; 4 hours p.i., i.v.): 0.3 ± 0.1 % I.A./g
- Biodistribution: HT-1080.wt ([1]; 1 hour p.i., i.v.): 1.4 ± 0.2 % I.A./g
- Biodistribution: HT-1080.wt ([1]; 4 hours p.i., i.v.): 0.9 ± 0.1 % I.A./g
- Biodistribution: HT-1080.hFAP ([1]; 1 hour p.i., i.v.): 3.5 ± 1.0 % I.A./g
- Biodistribution: HT-1080.hFAP ([1]; 4 hours p.i., i.v.): 4.0 ± 0.6 % I.A./g
- Accumulation in FAP-positive (HT-1080.hFAP) tumor and murine-FAP-positive tissues, such as the bone marrow (bones) [1]: high accumulation
- Cell surface fraction ([2]; 15 min): 1.2 ± 0.6 % of the applied activity
- Internalized fraction ([2]; 30 min): 20.7 ± 5.5 % of the applied activity
- Cell surface fraction ([2]; 60 min): 1.4 ± 0.5 % of the applied activity
- Internalized fraction ([2]; 60 min): 27.0 ± 6.9 % of the applied activity
- Cell surface fraction ([2]; 240 min): 1.3 ± 0.5 % of the applied activity
- Internalized fraction ([2]; 240 min): 28.3 ± 7.5 % of the applied activity

Structure (SMILES): CN(C(=O)CCC(=O)N1CCN(C(=O)CCC(C(=O)O)N2CCN(CC(=O)[O-])CCN(CC(=O)[O-])CC2)CC1)c1ccc2nccc(C(=O)NCC(=O)N3CC(F)(F)CC3C#N)c2c1.[61Cu+2] (stereo not shown) [[^61Cu]Cu-NODAGA-4]
- Biodistribution: Heart ([1]; 1 hour p.i., i.v.): 0.6 ± 0.0 % I.A./g
- Biodistribution: Intestine ([1]; 1 hour p.i., i.v.): 0.5 ± 0.2 % I.A./g
- Biodistribution: Liver ([1]; 1 hour p.i., i.v.): 0.6 ± 0.1 % I.A./g
- Biodistribution: Lung ([1]; 1 hour p.i., i.v.): 0.9 ± 0.1 % I.A./g
- Biodistribution: Muscle ([1]; 1 hour p.i., i.v.): 0.8 ± 0.2 % I.A./g
- Biodistribution: Spleen ([1]; 1 hour p.i., i.v.): 0.4 ± 0.0 % I.A./g
- Biodistribution: Stomach ([1]; 1 hour p.i., i.v.): 0.5 ± 0.0 % I.A./g
- Biodistribution: Adrenal ([1]; 4 hours p.i., i.v.): 0.5 ± 0.1 % I.A./g
- Biodistribution: Blood ([1]; 4 hours p.i., i.v.): 0.4 ± 0.1 % I.A./g
- Biodistribution: Heart ([1]; 4 hours p.i., i.v.): 0.2 ± 0.0 % I.A./g
- Biodistribution: Intestine ([1]; 4 hours p.i., i.v.): 0.3 ± 0.1 % I.A./g
- Biodistribution: Liver ([1]; 4 hours p.i., i.v.): 0.4 ± 0.0 % I.A./g
- Biodistribution: Lung ([1]; 4 hours p.i., i.v.): 0.3 ± 0.0 % I.A./g
- Biodistribution: Muscle ([1]; 4 hours p.i., i.v.): 0.4 ± 0.1 % I.A./g
- Biodistribution: Pancreas ([1]; 4 hours p.i., i.v.): 0.4 ± 0.1 % I.A./g
- Biodistribution: Spleen ([1]; 4 hours p.i., i.v.): 0.2 ± 0.0 % I.A./g
- Biodistribution: Stomach ([1]; 4 hours p.i., i.v.): 0.2 ± 0.0 % I.A./g
- Biodistribution: HT-1080.wt ([1]; 1 hour p.i., i.v.): 1.7 ± 0.2 % I.A./g
- Biodistribution: HT-1080.wt ([1]; 4 hours p.i., i.v.): 0.6 ± 0.0 % I.A./g
- Biodistribution: HT-1080.hFAP ([1]; 1 hour p.i., i.v.): 7.4 ± 1.6 % I.A./g
- Biodistribution: HT-1080.hFAP ([1]; 4 hours p.i., i.v.): 3.0 ± 0.8 % I.A./g
- Accumulation in FAP-positive (HT-1080.hFAP) tumor and murine-FAP-positive tissues, such as the bone marrow (bones) [1]: high accumulation
- Retention in the body (remaining PET activity 4 h p.i.), in words [3]: lowest value
- Cell surface fraction ([2]; 15 min): 1.0 ± 0.7 % of the applied activity
- Internalized fraction ([2]; 30 min): 22.2 ± 7.4 % of the applied activity
- Cell surface fraction ([2]; 60 min): 1.4 ± 0.4 % of the applied activity
- Internalized fraction ([2]; 60 min): 22.2 ± 5.1 % of the applied activity
- Cell surface fraction ([2]; 240 min): 0.9 ± 0.6 % of the applied activity
- Internalized fraction ([2]; 240 min): 17.4 ± 4.4 % of the applied activity
